The conditions of data set [1]: published standard, 10 mg/kg PO; cited from earlier work.
Data set [2] has as its target r-hPDE2A (Homo sapiens (Human), UniProt O00408). Briefly: Measurement of PDE2 inhibition in vitro (IMAP fluorescence polarization). The data set is classed as biochemical. To be noted: FL-cAMP substrate, buffer supplemented with 1 μM cGMP. As to the method:
Measurement of PDE2 Inhibition In Vitro
r-hPDE2A (Accession No. NM_002599, Homo sapiens phosphodiesterase 2A, cGMP-stimulated, transcript variant 1) A mammalian expression cloning vector with recombinant cDNA copy of the gene is purchased from Origene. Protein is expressed via transient transfection of HEK293 cells. The cells are harvested at 48 hours after transfection, washed once with TBS buffer (50 mM Tris-HCl, pH 7.5, 150 mM NaCl), then lysed by sonication in cold homogenization buffer (50 mM Tris-HCl, pH 7.5, 5 mM MgCl2, 1× protease inhibitor cocktail). The homogenate is centrifuged for 30 min at 15,000 g at 4° C. to obtain the soluble cytosolic fraction. The protein concentration of the cytosol is determined using BCA Protein Assay Kit (Pierce) with bovine serum albumin as a standard.
Assay: PDE2A is assayed with FL-cAMP as substrate. An enzyme titration is first performed to determine the working concentration of PDE. The concentration of the enzyme giving activity of 100 ΔmP in the absence of inhibitor is deemed an appropriate working concentration for PDE.
PDE enzyme is diluted in a standard reaction buffer (10 mM Tris-HCl pH 7.2, 10 mM MgCl2, 0.1% BSA, 0.05% NaN3) according to the titration curve. For PDE2 assay the reaction buffer is supplemented with 1 μM cGMP to fully activate the enzyme. 99 μl of diluted enzyme solution is added into each well in a flat bottom 96-well polystyrene plate and then ˜1 μl of test compound dissolved in 100% DMSO is added. The compounds are mixed and pre-incubated with the enzyme for 10 min at room temperature.
The FL-cNMP conversion reaction is initiated by addition of substrate (45 nM final). Enzyme and inhibitor mix (16 μl) and substrate solution (4 μl of 0.225 μM) are combined in a 384-well microtiter plate. The reaction is incubated in the dark at room temperature for 15 min. The reaction is halted by addition of 60 μl of binding reagent (1:400 dilution of IMAP beads in binding buffer supplemented with 1:1800 dilution of antifoam) to each well of the 384-well plate. The plate is incubated at room temperature for 1 hour to allow IMAP binding to proceed to completion, and then placed in an Envision multimode microplate reader (PerkinElmer, Shelton, Conn.) to measure the fluorescence polarization (Δmp).
A decrease in cAMP concentration, measured as decreased Amp, is indicative of inhibition of PDE activity. […] Test well values are normalized to control reactions run on the same plate (values converted to % of control). IC50 values are estimated using nonlinear regression software, fitting a four-parameter one-site dose-response model (XLFit; IDBS, Cambridge, Mass.). Bottom of curve is fixed at 0% of control.
The total fluorescence intensity of each sample well is measured to calculate the average and standard deviation. If the total fluorescence intensity of any sample well is not within the range of Average±3SD, the mp value of that particular well is discarded.

Data set [3] is described as follows: Pharmacokinetic study in mice (plasma and brain availability). The data set is classed as in vivo. The following applies: 10 mg/kg PO; for blood plasma ratio: brain/plasma, po, 10 mg/kg. As to the method:
Pharmacokinetic Study in Mice
Mice are given a single oral dose of the compound of Example 22 (10 mg/kg, PO) and plasma and brain availability are measured (0.25-4 h) using HPLC and LC-MS using methods analogous to those described in Zhao et al., J. Chromatogr. B. Analyt. Technol. Biomed. Life Sci. (2005) 819(1):73-80 and Appels, N. M., et al., Rapid Commun. Mass Spec. 2005. 19(15): p. 2187-92.

The test system of data set [4] is cGMP levels in the striatum. In words: Measurements of cGMP in mouse brain in vivo. As to the method: Measurements of cGMP in Mouse Brain in vivo:
Striatum are dissected from the mouse brains and assayed for levels of cGMP. Trichloroacetic acid (TCA) is added to tissue samples for a final concentration of 5% TCA and the tissue is immediately sonicated in solution and stored on ice. The sonicated sample is centrifuged at 15,000×g for 20 min at 4° C. to remove the precipitated protein. To extract the TCA, the sample is washed three times in water saturated ether. The samples are then dried under vacuum (Speedvac, Savant SPD111V) at room temperature and re-suspended in 100 μL EIA buffer. […] Each sample is tested in duplicate in precoated assay plates alongside the 8-point cGMP standard dilutions. In addition, blank, maximum binding (B0) and non-specific binding wells are included. To all wells containing 50 μL sample or standard, equal volumes of AChE-linked cGMP and cGMP antibody are added. The plate is incubated at 4° C. for 18 hours. The wells are then washed 5 times with wash buffer. […] Each data point is converted to % B/B0 (100*[(sample or standard OD−average non-specific binding)/(average B0−average non-specific binding)]). The standards are plotted and fit to a 4-parameter logistic equation (FIG. 1). The concentrations of the samples are interpolated from the standard curve using Microsoft Excel and GraphPad Prizm.

Like-named read-outs stand apart in the source and are kept apart here.

Sequence of r-hPDE2A (O00408 whole entry): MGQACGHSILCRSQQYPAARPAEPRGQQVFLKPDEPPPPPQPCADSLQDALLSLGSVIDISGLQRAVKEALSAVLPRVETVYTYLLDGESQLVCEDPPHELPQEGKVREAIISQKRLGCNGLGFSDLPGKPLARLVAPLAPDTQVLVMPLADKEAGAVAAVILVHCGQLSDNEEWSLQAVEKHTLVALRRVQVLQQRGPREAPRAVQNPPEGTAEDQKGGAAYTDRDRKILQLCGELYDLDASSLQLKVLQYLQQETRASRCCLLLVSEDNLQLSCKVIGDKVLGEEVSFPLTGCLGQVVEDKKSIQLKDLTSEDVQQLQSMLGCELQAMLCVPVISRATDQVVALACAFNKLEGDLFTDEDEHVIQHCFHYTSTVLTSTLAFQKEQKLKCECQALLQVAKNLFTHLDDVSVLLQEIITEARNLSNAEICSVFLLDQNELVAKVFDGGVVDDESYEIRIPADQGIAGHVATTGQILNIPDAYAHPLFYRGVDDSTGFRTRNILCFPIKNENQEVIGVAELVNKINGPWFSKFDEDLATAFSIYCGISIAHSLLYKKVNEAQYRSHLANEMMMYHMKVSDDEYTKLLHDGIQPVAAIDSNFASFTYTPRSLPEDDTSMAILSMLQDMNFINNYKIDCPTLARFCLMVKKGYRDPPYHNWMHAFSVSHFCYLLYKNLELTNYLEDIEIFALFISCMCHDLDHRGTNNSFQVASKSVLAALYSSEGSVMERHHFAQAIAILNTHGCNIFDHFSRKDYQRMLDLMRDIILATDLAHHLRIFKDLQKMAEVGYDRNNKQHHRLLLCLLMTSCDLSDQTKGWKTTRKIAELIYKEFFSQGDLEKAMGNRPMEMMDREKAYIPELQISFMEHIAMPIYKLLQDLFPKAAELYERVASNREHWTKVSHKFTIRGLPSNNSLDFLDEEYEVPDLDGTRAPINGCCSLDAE

Turning to `COc1ccc(Cc2nn3c([C@@H](CCCc4ccccc4)[C@@H](C)O)nc(C)c3c(=O)[nH]2)cc1OC` [Bay 60-7550], in data set [1], the Cmax is 3 ng/mL and the Tmax was 15 min.
Molecule `CCCCOc1ccc(Cl)c(-n2nc(C)c3c(=O)[nH]c4cccnc4c32)c1` [Example 17, 1-(5-Butoxy-2-chlorophenyl)-3-methyl-1H-pyrazolo[4,3-c][1,5]naphthyridin-4(5H)-one] came in with an IC50 in data set [2] of 28 nM. This counts as double-digit nanomolar.
The same measure, in the same setting: as for `Cc1nn(-c2cc(Cl)ccc2Cl)c2c1c(=O)[nH]c1ccc(Cl)nc12` [Example 19, 8-Chloro-1-(2,5-dichlorophenyl)-3-methyl-1H-pyrazolo[4,3-c][1,5]naphthyridin-4(5H)-one], the figure is 73 nM; as for `CCCCOc1ccc(Cl)c(-n2nc(C)c3c(=O)[nH]c4ccc(Cl)nc4c32)c1` [Example 20, 1-(5-Butoxy-2-chlorophenyl)-8-chloro-3-methyl-1H-pyrazolo[4,3-c][1,5]naphthyridin-4(5H)-one], 12 nM.
With `CCCCOc1ccc(Cl)c(-n2nc(C)c3c(=O)[nH]c4ccc(OC)nc4c32)c1` [Example 21, 1-(5-Butoxy-2-chlorophenyl)-8-methoxy-3-methyl-1H-pyrazolo[4,3-c][1,5]naphthyridin-4(5H)-one], the IC50 in data set [2] is 9.4 nM. This IC50 and that of the molecule before are within 1.5-fold of each other.
On to `COc1ccc2[nH]c(=O)c3c(C)nn(-c4cc(OCC5CCC5)ccc4Cl)c3c2n1` [Example 22, 1-(2-Chloro-5-(cyclobutylmethoxy)phenyl)-8-methoxy-3-methyl-1H-pyrazolo[4,3-c][1,5]naphthyridin-4(5H)-one], for which the brain access result in data set [3] (0.25-4 h, compared to Bay 60-7550) is “good brain access”. For the same molecule, in data set [3] (mouse, brain), the AUC turned out to be 83 ng·h/mL, the AUC(0-t) came out at 50 ng·h/mL, the peak level (Cmax) was 17 ng/mL and the Tmax came out at 2 h. For the same molecule, the half-life in data set [3] (mouse, brain, read-out: E Half-life (converted)) is 144 min. Further, the blood plasma ratio in data set [3] (mouse, read-out: Blood/plasma Ratio of AUC (area)) amounted to 0.9. The blood plasma ratio in data set [3] (mouse, read-out: Blood/plasma Ratio of Cmax (obs)) was found to be 1.4. Further, the blood plasma ratio in data set [3] (mouse, Blood/plasma Ratio of AUC (0-4 hr) (obs area)) is 1.4. The molecule further returned an IC50 in data set [2] of 5.9 nM. Further, the “cGMP levels in the striatum of mice” value in data set [4] (3 mg/kg i.p., 15, 30 or 60 min, compared to Bay 60-7550 (3 mg/kg)) was “increases cGMP levels”. Further, the “brain access compared to Bay60-7550” value in data set [4] (inferred from striatal cGMP after 3 mg/kg i.p.) is on record as “improvement in brain access”.

What is called Cmax is the maximum level reached in the sampled fluid or tissue. Usually Tmax stands for the time from dosing to the highest level. Usually IC50 stands for the midpoint of a concentration-inhibition curve. Low readings indicate higher potency, high ones lower potency. As a reminder, the AUC is the area under the concentration-time curve, a measure of exposure. A high value points to more exposure. One may read the AUC(0-t) as exposure summed from dosing to a finite time, without extrapolation to infinity. Lower therefore signals low exposure. As usually defined, the half-life is the time in which the quantity being followed falls by half.

The values above are taken from US10105349B2, “Organic compounds” (INTRA-CELLULAR THERAPIES, INC., priority 2014, dated 2018).
